Assay results taken from US12110293B2, “Substituted triazolo quinoxaline derivatives” (GRÜNENTHAL GMBH, priority 2018, dated 2024).

What follows are compounds tested against T1, glucocorticoid receptor (Homo sapiens, UniProt P04150) (assay: Agonistic mode of action on the glucocorticoid receptor (CHO-Gal4/GR luciferase reporter cell line)). Settings: range class observed in the agonistic assay or the antagonistic assay (CHO-Gal4/GR reporter cells); table does not say which mode applies per example.
T1 construct: expressed in transfected cells
T1 sequence (P04150 524-758 limits assumed): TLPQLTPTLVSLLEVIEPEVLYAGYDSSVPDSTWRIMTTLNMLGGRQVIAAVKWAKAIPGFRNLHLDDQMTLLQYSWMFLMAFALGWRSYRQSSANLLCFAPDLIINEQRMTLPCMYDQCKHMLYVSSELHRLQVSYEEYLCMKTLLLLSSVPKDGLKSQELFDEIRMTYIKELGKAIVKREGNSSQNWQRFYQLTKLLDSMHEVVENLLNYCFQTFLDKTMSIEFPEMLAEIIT
Format: cell-based
Excerpt: Potential selective glucocorticoid receptor modulators of this intervention can be tested for modulation of the activity of the glucocorticoid receptor using cell-based assays. These assays involve a Chinese hamster ovary (CHO) cell line which contains fragments of the glucocorticoid receptor as well as fusion proteins. The glucocorticoid receptor fragments used are capable of binding the ligand (e.g. beclomethasone) to identify molecules that compete for binding with glucocorticoid receptor ligands. In more detail, the glucocorticoid receptor ligand binding domain is 25 fused to the DNA binding domain (DBD) of the transcriptionfactor GAL4 (GAL4 DBD-GR) and is stably integrated into a CHO cell line containing a GAL4-UAS-Luciferase reporter construct. […] After cell lysis the luminescence that is produced by luciferase after addition of the substrate is detected and EC50 or IC50 values can be calculated. Engagement of molecules which induce gene expression via glucocortocoid receptor binding to the DNA leads to expression of the luciferase gene under the control of the fusion protein GAL4 DBD-GR and therefore to a dose-dependent increase of the luminescence signal. Binding of molecules which repress beclomethasone-induced gene expression of the luciferase gene under the control of the fusion protein GAL4 DBD-GR leads to a dose-dependent reduction of the luminescence signal.
Biological Assays Agonistic Mode of Action on the Glucocorticoid Receptor
The reporter cell line CHO-Gal4/GR consisted of a Chinese hamster ovary (CHO) cell line (Leibniz Institute DSMZ—German Collection of Microorganisms and Cell CuItures GmbH: ACC-110) containing a firefly luciferase gene under the control of the GR ligand binding domain fused to the DNA binding domain (DBD) of GAL4 (GAL4 DBD-GR) stably integrated into CHO cells. This cell line was established by stable transfection of CHO cells with a GAL4-UAS-Luciferase reporter construct. In a subsequent step the ligand binding domain of the GR cloned into pIRES2-EGFP-GAL4 containing the DNA binding domain of GAL4 from pFA-AT2 was transfected. This fusion construct activated firefly luciferase expression under the control of a multimerized GAL4 upstream activation sequence (UAS). The signal of the emitted luminescence was recorded by the FLIPR^TETRA. This allowed for specific detection of ligand-induced activation of the GR and therefore for the identification of compounds with agonistic properties. The GAL4/UAS reporter was premixed with a vector that constitutively expressed Renilla luciferase, which served as an internal positive control for transfection efficiency.
The complete culture medium for the assay was: • DMEM F-12 (1:1) MIXTURE (LONZA cat. N°: BE04-687F/U1) 500 mL • 5 mL of 100 mM Sodium Pyruvate (LONZA cat. N°: BE12-115E) • 25 mL of 7.5% Sodium Bicarbonate (LONZA cat. N° BE17-613E) • 6.5 mL of 1 M Hepes (LONZA cat. N°: BE17-737E) • 5 mL of 100× Penicillin/Streptomycin (LONZA cat. N° DE17-602E) • 50 mL of Fetal Bovine Serum (Euroclone cat. N° ECS 0180L) • 0.25 mL of 10 mg/mL Puromycin (InvivoGen cat.: ant-pr-1) • 0.5 mL of 100 mg/mL Zeocin (InvivoGen cat.: ant-zn-1)
Cryo-preserved CHO-Gal4/GR cells were suspended in complete medium and 5000 cells/25 μl/well were seeded into the wells of 384-well polystyrene assay plates (Thermo Scientific, cat. #4332) and cultured at 37° C., 5% CO2 and 95% humidity. After 24 hours growth medium was carefully removed and replaced by 30 μl Opti-MEM (GIBCO, cat. #31985062) as assay buffer. To test the compounds an 8-point half-log compound dilution curve was generated in 100% DMSO starting from a 2 mM stock and compounds were then diluted 1:50 in Opti-MEM. 10 μl of compounds were then added to the wells containing 30 μl Opti-MEM resulting in a final assay concentration range from 10 μM to 0.003 μM in 0.5% DMSO. Compounds were tested at 8 concentrations in quadruplicate data points.
With `Cc1n[nH]c2c(-c3c(F)cc4c(c3F)-n3c(C)nnc3C(C)(C)N4)cccc12` [Example 354, 7,9-Difluoro-1,4,4-trimethyl-8-(3-methyl-1H-indazol-7-yl)-5H-[1,2,4]triazolo[4,3-a]quinoxaline] the IC50 or EC50 (agonist or antagonist mode not specified) was 100 to 1000 nM.
`Cc1c(-c2cccc3c(C)n[nH]c23)c(F)cc2c1-n1c(C)nnc1C(C)(C)N2` [Example 361, 7-Fluoro-1,4,4,9-tetramethyl-8-(3-methyl-1H-indazol-7-yl)-5H-[1,2,4]triazolo[4,3-a]quinoxaline] gave an IC50 or EC50 (agonist or antagonist mode not specified) of 1000 to 15000 nM.
`Cc1c[nH]c2c(-c3c(F)cc4c(c3C(F)F)-n3c(C)nnc3C(C)(C)N4)cc(F)cc12` [Example 302, 9-(Difluoro-methyl)-7-fluoro-8-(5-fluoro-3-methyl-1H-indol-7-yl)-1,4,4-trimethyl-5H-[1,2,4]triazolo[4,3-a]quinoxaline] showed an IC50 or EC50 (agonist or antagonist mode not specified) of less than 100 nM.
With `Cc1c(-c2cc(F)cc3c2ccn3C)c(F)cc2c1-n1c(C)nnc1C(C)(C)N2` [Example 518, 7-Fluoro-8-(6-fluoro-1-methyl-1H-indol-4-yl)-1,4,4,9-tetramethyl-5H-[1,2,4]triazolo[4,3-a]quinoxaline] the IC50 or EC50 (agonist or antagonist mode not specified) was less than 100 nM.
`Cc1c(-c2cc(F)cc3c2ccn3S(C)(=O)=O)ccc2c1-n1c(C)nnc1C(C)(C)N2` [Example 453, 8-(6-Fluoro-1-methylsulfonyl-1H-indol-4-yl)-1,4,4,9-tetramethyl-5H-[1,2,4]triazolo[4,3-a]quinoxaline] was tested, and the IC50 or EC50 (agonist or antagonist mode not specified) was less than 100 nM.
Work on `COCCn1ccc2c(-c3c(OC)cc4c(c3F)-n3c(C)nnc3C(C)(C)N4)cccc21` [Example 288, 9-Fluoro-7-methoxy-8-[1-(2-methoxy-ethyl)-1H-indol-4-yl]-1,4,4-trimethyl-5H-[1,2,4]triazolo[4,3-a]quinoxaline] yielded an IC50 or EC50 (agonist or antagonist mode not specified) of 1000 to 15000 nM.
`COc1cc(-c2c(F)cc3c(c2C)-n2c(C)nnc2C(C)(C)N3)c2ccn(S(C)(=O)=O)c2c1` [Example 537, 7-Fluoro-8-(6-methoxy-1-methylsulfonyl-1H-indol-4-yl)-1,4,4,9-tetramethyl-5H-[1,2,4] triazolo[4,3-a]quinoxaline] was tested, and the IC50 or EC50 (agonist or antagonist mode not specified) was 100 to 1000 nM.
`COCCn1ccc2c(-c3c(C)cc4c(c3F)-n3c(C)nnc3C(C)(C)N4)cccc21` [Example 337, 9-Fluoro-8-[1-(2-methoxy-ethyl)-1H-indol-4-yl]-1,4,4,7-tetramethyl-5H-[1,2,4]triazolo[4,3-a]quinoxaline] showed an IC50 or EC50 (agonist or antagonist mode not specified) of 1000 to 15000 nM.
`Cc1c[nH]c2c(-c3c(F)cc4c(c3F)-n3c(Cc5ccccn5)nnc3C(C)(C)N4)cc(F)cc12` [Example 74, 7,9-Difluoro-8-(5-fluoro-3-methyl-1H-indol-7-yl)-4,4-dimethyl-1-(pyridin-2-yl-methyl)-5H-[1,2,4]triazolo[4,3-a]quinoxaline] was tested, and the IC50 or EC50 (agonist or antagonist mode not specified) was less than 100 nM.
For `Cc1c(-c2cc(F)cc3c2cnn3CC(F)F)c(OC(F)(F)F)cc2c1-n1c(C)nnc1C(C)(C)N2` [Example 469, 8-[1-(2,2-Difluoro-ethyl)-6-fluoro-1H-indazol-4-yl]-1,4,4,9-tetramethyl-7-(trifluoromethyloxy)-5H-[1,2,4]triazolo[4,3-a]quinoxaline], the IC50 or EC50 (agonist or antagonist mode not specified) was 100 to 1000 nM.
For `Cc1nnc2n1-c1c(cc(F)c(-c3cc(F)cc4c3cnn4S(C)(=O)=O)c1F)NC2(C)C` [Example 276, 7,9-Difluoro-8-(6-fluoro-1-methylsulfonyl-1H-indazol-4-yl)-1,4,4-trimethyl-5H-[1,2,4]triazolo [4,3-a]quinoxaline], the IC50 or EC50 (agonist or antagonist mode not specified) was 100 to 1000 nM.
`Cc1c(-c2cccc3c2ccn3C2CC2)c(Cl)cc2c1-n1c(C)nnc1C(C)(C)N2` [Example 533, 7-Chloro-8-(1-cyclopropyl-1H-indol-4-yl)-1,4,4,9-tetramethyl-5H-[1,2,4]triazolo[4,3-a] quinoxaline] showed an IC50 or EC50 (agonist or antagonist mode not specified) of less than 100 nM.
`Cc1c(-c2ccc(Cl)c3c2ccn3S(C)(=O)=O)c(F)cc2c1-n1c(C)nnc1C(C)(C)N2` [Example 525, 8-(7-Chloro-1-methylsulfonyl-1H-indol-4-yl)-7-fluoro-1,4,4,9-tetramethyl-5H-[1,2,4]triazolo [4,3-a]quinoxaline] was tested, and the IC50 or EC50 (agonist or antagonist mode not specified) was 100 to 1000 nM.
Work on `CCc1c[nH]c2c(-c3c(F)cc4c(c3F)-n3c(C)nnc3C(C)(C)N4)cc(F)cc12` [Example 43, 8-(3-ethyl-5-fluoro-1H-indol-7-yl)-7,9-difluoro-1,4,4-trimethyl-4,5-dihydro-[1,2,4]triazolo[4,3-a]quinoxaline] yielded an IC50 or EC50 (agonist or antagonist mode not specified) of less than 100 nM.
With `Cc1c[nH]c2c(-c3ccc4c(c3C(F)F)-n3c(C)nnc3C(C)(C)N4)cc(F)cc12` [Example 527, 9-(Difluoro-methyl)-8-(5-fluoro-3-methyl-1H-indol-7-yl)-1,4,4-trimethyl-5H-[1,2,4]triazolo [4,3-a]quinoxaline] the IC50 or EC50 (agonist or antagonist mode not specified) was less than 100 nM.
`Cc1nnc2n1-c1c(cc(F)c(-c3cccc4c3ccn4S(C)(=O)=O)c1F)NC2(C)C` [Example 22, 7,9-difluoro-1,4,4-trimethyl-8-(1-(methylsulfonyl)-1H-indol-4-yl)-4,5-dihydro-[1,2,4]triazolo[4,3-a]quinoxaline] showed an IC50 or EC50 (agonist or antagonist mode not specified) of 100 to 1000 nM.
For `Cc1c(-c2cccc3[nH]ccc23)c(F)cc2c1-n1c(C)nnc1C(C)(C)N2` [Example 399, 7-Fluoro-8-(1H-indol-4-yl)-1,4,4,9-tetramethyl-5H-[1,2,4]triazolo[4,3-a]quinoxaline], the IC50 or EC50 (agonist or antagonist mode not specified) was less than 100 nM.
Compound `CC#Cc1c[nH]c2c(-c3c(F)cc4c(c3C)-n3c(C)nnc3C(C)(C)N4)cccc12` [Example 28, 7-fluoro-1,4,4,9-tetramethyl-8-(3-(prop-1-yn-1-yl)-1H-indol-7-yl)-4,5-dihydro-[1,2,4]triazolo[4,3-a]quinoxaline] has an IC50 or EC50 (agonist or antagonist mode not specified) of less than 100 nM.
`CCc1nnc2n1-c1c(cc(F)c(-c3cc(C)cc4c(C#N)c[nH]c34)c1F)NC2(C)C` [Example 17, 7-(1-ethyl-7,9-difluoro-4,4-dimethyl-4,5-dihydro-[1,2,4]triazolo[4,3-a]quinoxalin-8-yl)-5-methyl-1H-indole-3-carbonitrile] gave an IC50 or EC50 (agonist or antagonist mode not specified) of 100 to 1000 nM.
With `COc1cc2c(c(F)c1-c1cccc3c1ccn3S(C)(=O)=O)-n1c(C)nnc1C(C)(C)N2` [Example 263, 9-Fluoro-7-methoxy-1,4,4-trimethyl-8-(1-methylsulfonyl-1H-indol-4-yl)-5H-[1,2,4]triazolo[4,3-a]quinoxaline] the IC50 or EC50 (agonist or antagonist mode not specified) was 1000 to 15000 nM.
In the case of `Cc1nnc2n1-c1c(cc(C(F)F)c(-c3cc(F)cc4c3ccn4S(C)(=O)=O)c1F)NC2(C)C` [Example 298, 7-(Difluoro-methyl)-9-fluoro-8-(6-fluoro-1-methylsulfonyl-1H-indol-4-yl)-1,4,4-trimethyl-5H-[1,2,4]triazolo[4,3-a]quinoxaline], the IC50 or EC50 (agonist or antagonist mode not specified) is reported as 1000 to 15000 nM.
With `Cc1c(-c2cccc3c2ccn3C2CC2)c(F)cc2c1-n1c(C)nnc1C(C)(C)N2` [Example 27, 8-(1-cyclopropyl-1H-indol-4-yl)-7-fluoro-1,4,4,9-tetramethyl-4,5-dihydro-[1,2,4]triazolo[4,3-a]quinoxaline] the IC50 or EC50 (agonist or antagonist mode not specified) was less than 100 nM.
